We go through 17 compounds from patent US8828401B2, “Cytotoxic peptides and antibody drug conjugates thereof” (Pfizer Inc., priority 2011, dated 2014).

pIC50: −log10 of the molar value. Like-named read-outs stand apart in the source and are kept apart here. Starred links: 1 amine or outer side, 2 acyl side, 3 side chain; linkers in the order of their positions; H or OH if unused. Non-standard residues stand in square brackets, D forms with d. Residues, ends and D or L forms follow the SMILES beside them. *: point of attachment. Dolaproine = CO[C@@H]([C@@H]1CCCN1)[C@@H](C)C(=O)O; X6 = O=C([C@H](N[*:1])[C@@H]1Cc2ccccc21)[*:2]; X2 = O=C([C@H](N[*:1])C1(c2ccccc2)CC1)[*:2]; Dil = CC[C@H](C)[C@H](NC)[C@@H](CC(=O)O)OC; Doe = c1ccc(C[C@H](N*)c2nccs2)cc1; NMeαMePro = CN1CCC[C@@]1(C)C(=O)*; dαMePip = C[C@]1(C(=O)O)CCCCN1; Ac4c(3-oxa) = NC1(C(=O)O)COC1; NHPhenethyl = c1ccc(CCN*)cc1; X13 = c1ccc(C2(CN*)CC2)cc1; NMeAib = CNC(C)(C)C(=O)O; Ac5c = NC1(C(=O)O)CCCC1; X4 = CN(C)C(C)(C)C(=O)*; NH(propargyl) = C#CCN*; Aib = CC(C)(N)C(=O)O

As a reminder, the pIC50 is the IC50 on a negative log10 scale, so that one unit is a factor of ten.

What all share (test): In vitro cell assay, MTS cell viability 96 hours after treatment
Holding throughout (format): cell-based

Assay [1] concerns BT474 (breast cancer). The conditions noted are these: geometric mean, cytotoxic peptides, read-out: BT474 GMEAN IC50. Summed up:
(§1)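 Relative viability, calculated as percent of untreated control, came from an MTS colorimetric assay after 96 hours of exposure to serially diluted conjugates or unconjugated drugs.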

The test system of assay [2] is MDA-MB-361-DYT2 (breast cancer). The conditions noted are these: read-out: MDA-MB-361-DYT2 GMEAN IC50, MDA-MB-361-DYT2 cells; geometric mean; cytotoxic peptides. Summed up:
as §1

Assay [3] has as its system N87 (gastric cancer). The conditions noted are these: read-out: N87 GMEAN IC50, N87 cells; geometric mean; cytotoxic peptides. In outline:
as §1

[4] abbreviates: Homo sapiens, BT-474, BT474 cells.

As to `CC[C@H](C)[C@@H]([C@@H](CC(=O)N1CCC[C@H]1[C@H](OC)[C@@H](C)C(=O)N[C@@H](Cc1ccccc1)c1nccs1)OC)N(C)C(=O)[C@@H](NC(=O)C1(N)CCCC1)C(C)C` [#47, N^2-[(1-aminocyclopentyl)carbonyl]-N-[(3R,4S,5S)-3-methoxy-1-{(2S)-2-[(1R,2R)-1-methoxy-2-methyl-3-oxo-3-{[(1S)-2-phenyl-1-(1,3-thiazol-2-yl)ethyl]amino}propyl]pyrrolidin-1-yl}-5-methyl-1-oxoheptan-4-yl]-N-methyl-L-valinamide] (H-[Ac5c]V[Dil][Dolaproine]-Doe), the pIC50 was more than 9.61 in assay [1] (setting [4]), 9.50 in assay [2] and more than 9.59 in assay [3].
Take `C#CCNC(=O)[C@H](Cc1ccccc1)NC(=O)[C@H](C)[C@@H](OC)[C@@H]1CCCN1C(=O)C[C@@H](OC)[C@H]([C@@H](C)CC)N(C)C(=O)[C@@H](NC(=O)C(C)(C)NC)C(C)C` [#241] (H-[NMeAib]V[Dil][Dolaproine]F-{NH(propargyl)}): the pIC50 in assay [1] (setting [4]) is 9.44; in assay [2] it was 9.31; in assay [3], 9.41.
For `CC[C@H](C)[C@@H]([C@@H](CC(=O)N1CCC[C@H]1[C@H](OC)[C@@H](C)C(=O)N[C@@H](Cc1ccccc1)C(=O)O)OC)N(C)C(=O)[C@@H](NC(=O)C(C)(C)NC)C(C)C` [#115, N,2-dimethylalanyl-N-{(1S,2R)-4-{(2S)-2-[(1R,2R)-3-{[(1S)-1-carboxy-2-phenylethyl]amino}-1-methoxy-2-methyl-3-oxopropyl]pyrrolidin-1-yl}-2-methoxy-1-[(1S)-1-methylpropyl]-4-oxobutyl}-N-methyl-L-valinamide] (H-[NMeAib]V[Dil][Dolaproine]F-OH), the results for the pIC50 in assay [1] (setting [4]), in assay [2] and in assay [3] were 7.50, 7.70 and 7.30, respectively.
For `CC[C@H](C)[C@@H]([C@@H](CC(=O)N1CCC[C@H]1[C@H](OC)[C@@H](C)C(=O)N[C@@H](C(=O)OC)[C@@H]1Cc2ccccc21)OC)N(C)C(=O)[C@@H](NC(=O)C(C)(C)N)C(C)C` [#224] (H-[Aib]V[Dil][Dolaproine][X6]-OMe) the same measures were 9.42, 9.00 and 8.81.
Consider `CC[C@H](C)[C@@H]([C@@H](CC(=O)N1CCC[C@H]1[C@H](OC)[C@@H](C)C(=O)N[C@@H](Cc1ccccc1)C(=O)OC)OC)N(C)C(=O)[C@@H](NC(=O)[C@@]1(F)CCNC1)C(C)C` [#173, methyl N-{(2R,3R)-3-[(2S)-1-{(3R,4S,5S)-4-[(N-{[(3R)-3-fluoropyrrolidin-3-yl]carbonyl}-L-valyl)(methyl)amino]-3-methoxy-5-methylheptanoyl}pyrrolidin-2-yl]-3-methoxy-2-methylpropanoyl}-L-phenylalaninate], for which the negative logarithm of the IC50 (pIC50) was 10.06 in assay [1] (BT474 cells), 10.17 in assay [2] and 10.00 in assay [3].
As for `CC[C@H](C)[C@@H]([C@@H](CC(=O)N1CCC[C@H]1[C@H](OC)[C@@H](C)C(=O)N[C@@H](C(=O)O)C1(c2ccccc2)CC1)OC)N(C)C(=O)[C@@H](NC(=O)C(C)(C)N)C(C)C` [#230] (H-[Aib]V[Dil][Dolaproine][X2]-OH), the pIC50 is not above 7.00 in assay [1] (setting [4]), 7.15 in assay [2] and 7.05 in assay [3].
In the same order, the values of `CC[C@H](C)[C@@H]([C@@H](CC(=O)N1CCC[C@H]1[C@H](OC)[C@@H](C)C(=O)N[C@@H](Cc1ccccc1)C(=O)O)OC)N(C)C(=O)[C@@H](NC(=O)C(C)(C)N(C)C)C(C)C` [#229] (X4-V[Dil][Dolaproine]F-OH) are 7.74, 7.99 and 7.78.
In the same order, the values of `CC[C@H](C)[C@@H]([C@@H](CC(=O)N1CCC[C@H]1[C@H](OC)[C@@H](C)C(=S)N[C@@H](Cc1ccccc1)c1nccs1)OC)N(C)C(=O)[C@@H](NC(=O)C1(N)CCCC1)C(C)C` [#30, N^2-[(1-aminocyclopentyl)carbonyl]-N-[(3R,4S,5S)-3-methoxy-1-{(2S)-2-[(1R,2R)-1-methoxy-2-methyl-3-{[(1S)-2-phenyl-1-(1,3-thiazol-2-yl)ethyl]amino}-3-thioxopropyl]pyrrolidin-1-yl}-5-methyl-1-oxoheptan-4-yl]-N-methyl-L-valinamide] are 9.17, 8.73 and 8.17.
For the compound `CC[C@H](C)[C@@H]([C@@H](CC(=O)N1CCC[C@H]1[C@H](OC)[C@@H](C)C(=S)N[C@@H](Cc1ccccc1)C(=O)OC)OC)N(C)C(=O)[C@@H](NC(=O)C(C)(C)NC)C(C)C` [#79, N,2-dimethylalanyl-N-[(3R,4S,5S)-3-methoxy-1-{(2S)-2-[(1R,2R)-1-methoxy-3-{[(2S)-1-methoxy-1-oxo-3-phenylpropan-2-yl]amino}-2-methyl-3-thioxopropyl]pyrrolidin-1-yl}-5-methyl-1-oxoheptan-4-yl]-N-methyl-L-valinamide], the results for the negative-log IC50 (pIC50) in assay [1] (setting [4]), in assay [2] and in assay [3] were 10.10, 9.89 and 9.86, respectively.
With `CC[C@H](C)[C@@H]([C@@H](CC(=O)N1CCC[C@H]1[C@H](OC)[C@@H](C)C(=O)N[C@@H](Cc1ccccc1)C(=O)O)OC)N(C)C(=O)[C@@H](NC(=O)[C@@]1(C)CCCCN1)C(C)C` [#163, N-{(2R,3R)-3-methoxy-3-[(2S)-1-{(3R,4S,5S)-3-methoxy-5-methyl-4-[methyl(N-{[(2R)-2-methylpiperidin-2-yl]carbonyl}-L-valyl)amino]heptanoyl}pyrrolidin-2-yl]-2-methylpropanoyl}-L-phenylalanine] (H-[dαMePip]V[Dil][Dolaproine]F-OH), the figures for the pIC50 in assay [1] (setting [4]), in assay [2] and in assay [3] were not above 7.00, 7.00 and 7.14, respectively.
Regarding `CC[C@H](C)[C@@H]([C@@H](CC(=O)N1CCC[C@H]1[C@H](OC)[C@@H](C)C(=O)NCCc1ccccc1)OC)N(C)C(=O)[C@@H](NC(=O)C(C)(C)N)C(C)C` [#56, 2-methylalanyl-N-{(3R,4S,5S)-3-methoxy-1-[(2S)-2-{(1R,2R)-1-methoxy-2-methyl-3-oxo-3-[(2-phenylethyl)amino]propyl}pyrrolidin-1-yl]-5-methyl-1-oxoheptan-4-yl}-N-methyl-L-valinamide] (H-[Aib]V[Dil][Dolaproine]-NHPhenethyl), the figures for the pIC50 in assay [1] (setting [4]), in assay [2] and in assay [3] were 9.50, 9.12 and 8.90, respectively.
Consider `CC[C@H](C)[C@@H]([C@@H](CC(=O)N1CCC[C@H]1[C@H](OC)[C@@H](C)C(=O)NCCc1ccccc1)OC)N(C)C(=O)[C@@H](NC(=O)C1(N)COC1)C(C)C` [#75, N^2-[(3-aminooxetan-3-yl)carbonyl]-N-{(3R,4S,5S)-3-methoxy-1-[(2S)-2-{(1R,2R)-1-methoxy-2-methyl-3-oxo-3-[(2-phenylethyl)amino]propyl}pyrrolidin-1-yl]-5-methyl-1-oxoheptan-4-yl}-N-methyl-L-valinamide] (H-[Ac4c(3-oxa)]V[Dil][Dolaproine]-NHPhenethyl), for which the pIC50 in assay [1] (setting [4]), in assay [2] and in assay [3] was less than 7.00 in each case.
For `CC[C@H](C)[C@@H]([C@@H](CC(=O)N1CCC[C@H]1[C@H](OC)[C@@H](C)C(=O)N[C@@H](Cc1ccccc1)C(=O)OC)OC)N(C)C(=O)[C@@H](NC(=O)[C@]1(C)CCCCN1)C(C)C` (single isomer, unassigned) [#158], the negative logarithm of the IC50 (pIC50) is 10.09 in assay [1] (setting [4]), 10.00 in assay [2] and 9.94 in assay [3].
For `CC[C@H](C)[C@@H]([C@@H](CC(=O)N1CCC[C@H]1[C@H](OC)[C@@H](C)C(=S)N[C@@H](Cc1ccccc1)c1nccs1)OC)N(C)C(=O)[C@@H](NC(=O)C(C)(C)N)C(C)C` [#34, 2-methylalanyl-N-[(3R,4S,5S)-3-methoxy-1-{(2S)-2-[(1R,2R)-1-methoxy-2-methyl-3-{[(1S)-2-phenyl-1-(1,3-thiazol-2-yl)ethyl]amino}-3-thioxopropyl]pyrrolidin-1-yl}-5-methyl-1-oxoheptan-4-yl]-N-methyl-L-valinamide] the same measures were 9.68, 8.95 and 8.71.
Turning to `CC[C@H](C)[C@@H]([C@@H](CC(=O)N1CCC[C@H]1[C@H](OC)[C@@H](C)C(=O)N[C@@H](Cc1ccccc1)C(=O)O)OC)N(C)C(=O)[C@@H](NC(=O)[C@]1(C)CCCN1C)C(C)C` [#151, 1,2-dimethyl-L-prolyl-N-{(1S,2R)-4-{(2S)-2-[(1R,2R)-3-{[(1S)-1-carboxy-2-phenylethyl]amino}-1-methoxy-2-methyl-3-oxopropyl]pyrrolidin-1-yl}-2-methoxy-1-[(1S)-1-methylpropyl]-4-oxobutyl}-N-methyl-L-valinamide] (NMeαMePro-V[Dil][Dolaproine]F-OH), the values for the negative-log IC50 (pIC50) in assay [1] (setting [4]), in assay [2] and in assay [3] were 7.07, 7.07 and 7.21, respectively.
As to `CC[C@H](C)[C@@H]([C@@H](CC(=O)N1CCC[C@H]1[C@H](OC)[C@@H](C)C(=O)N[C@H](Cc1ccccc1)C(=O)O)OC)N(C)C(=O)[C@@H](NC(=O)C(C)(C)NC)C(C)C` [#244] (H-[NMeAib]V[Dil][Dolaproine][dF]-OH), the pIC50 was 7.14 in assay [1] (setting [4]), not above 7.00 in assay [2] and not above 7.00 in assay [3].
For `CC[C@H](C)[C@@H]([C@@H](CC(=O)N1CCC[C@H]1[C@H](OC)[C@@H](C)C(=O)NCC1(c2ccccc2)CC1)OC)N(C)C(=O)[C@@H](NC(=O)C(C)(C)N)C(C)C` [#60, 2-methylalanyl-N-[(3R,4S,5S)-3-methoxy-1-{(2S)-2-[(1R,2R)-1-methoxy-2-methyl-3-oxo-3-{[(1-phenylcyclopropyl)methyl]amino}propyl]pyrrolidin-1-yl}-5-methyl-1-oxoheptan-4-yl]-N-methyl-L-valinamide] (H-[Aib]V[Dil][Dolaproine]-X13), the pIC50 is 9.28 in assay [1] (setting [4]) and 9.02 in assay [2].
